In patent publication US20250127759A1, “METHODS AND DOSING REGIMENS COMPRISING A CDK2 INHIBITOR FOR THE TREATMENT OF CANCER” (PFIZER INC., priority 2021, published 2025):

Experiments:
[1] = system: NCI-H526 cells; assay: Cell cycle distribution and DNA synthesis, NCI-H526; assay type: cell-based; settings: 72-hour treatment with 300 nM
Experimental: (§1) The effect of PF-07104091 on cell cycle distribution and DNA synthesis was determined following 72-hour treatment with 300 nM PF-07104091.

[2] = Predicted human pharmacokinetics for starting dose
Experimental: The selection of the starting dose and regimen was based on the nonclinical toxicology and PK results in accordance with the ICH S9 Guidance. Results from nonclinical toxicity studies indicate the STD10 of PF-07104091 in mouse was 150 mg/kg after BID oral administration. The human equivalent dose for the STD10 in mouse is approximately 729 mg BID (assuming a body weight of 60 kg). Per ICH-S9 guidance, one-tenth of the STD10 can be considered the appropriate starting dose. Given the predicted human t % of approximately 4 hours, the starting dose has been selected to be 75 mg BID. The human AUC0-12 hr of PF-07104091 at the proposed starting oral dose of 75 mg BID is predicted to be ˜6.5% of the observed AUC0-12 hr at the STD10 in mouse (150 mg/kg BID) and ˜80% of the observed AUC0-12 hr at the HNSTD in dog (15 mg/kg BID).

[3] = system: MCF7 cells; assay: Cell cycle distribution and DNA synthesis, MCF7; assay type: cell-based; settings: 72-hour treatment with 300 nM
Experimental: as §1

[4] = system: NCI-H526 SCLC cells; assay: Proliferation inhibition, NCI-H526; assay type: cell-based; settings: Homo sapiens, 168 h, treated for 7 days
Experimental: Anti-proliferative activity was measured in cells treated for 7 days with PF-07104091 in OVCAR3 cells, Rb mutant NCI-H526 SCLC cells, and both HR-positive HER2-negative MCF7 and the subline MCF7-PalboR (resistant to palbociclib).

[5] = system: OVCAR3 cells; assay: Cell cycle distribution and DNA synthesis, OVCAR3; assay type: cell-based; settings: 72-hour treatment with 300 nM
Experimental: as §1

[6] = system: ST941PBR PDX; assay: In vivo efficacy, palbociclib-resistant ST941PBR PDX model; settings: Day 28, 150 mg/kg BID PO, 150 mg/kg
Experimental: Female NSG mice (Jackson Lab) were subcutaneously implanted with fragment (27 mm^3 to 64 mm^3 size) into the dorsal region. All mice for T47D, HCC1428 and ST941 PBR studies were supplemented with 8.5 μg/mL estradiol water (β-Estradiol Sigma-Aldrich, cat #E2758-5G) and gave ad libitum till end of study. For the in vivo efficacy studies, tumor volume and body weights were measured twice a week. Tumor volume was calculated using the [(Length×Width×Width)/2)] formula. TGI was calculated as 100*(1−ΔT/ΔC). The ΔC (ΔT) was obtained by subtracting the mean tumor burden in the vehicle (treated) group on the first day of treatment (Day 0) from the mean tumor burden in vehicle (treated) group on the assessment day. Statistical analysis was performed using ANCOVA when the mean tumor volume in vehicle treated mice reached tumor cutoff size.
The ST941 PBR palbociclib resistant model was obtained from XENOSTART™ LLC, San Antonio, Texas. We established model in house by continuous treatment of the ST941 PBR tumor bearing mice with PD-0332991 at 50 mg/kg, PO QD plus fulvestrant at 10 mg/kg, SC twice in the first week, then weekly thereafter. To propagate donors for the TGI study, tumors were transplanted to recipient mice. One week after the re-implantation, the recipient mice received continuous treatment with palbociclib plus fulvestrant (dosing schedule described above). After 1 to 2 serial in vivo propagation with the same treatment regimen, the resistant tumors in the range of 700 to 800 mm^3 were re-implanted for a study expansion. The remaining tumor fragments were viably frozen for future use.
The live donor mice were established by implanting ST941 PBR (p11) tumor fragments. Once reaching a range of 700 to 800 mm^3, the donor tumors were subsequently transplanted into secondary recipient mice for a study expansion. To maintain the resistant clones, the ST941 PBR tumor bearing mice were treated with PD-0332991 at 50 mg/kg, PO. QD plus fulvestrant at 10 mg/kg, SC twice in the first week, then weekly afterwards for 10 weeks. […] TGI was assessed on Day 28 post first dose.

COCc1cc(C(=O)Nc2cc([C@H]3CC[C@@H](OC(=O)NC(C)C)C3)[nH]n2)n(C)n1 [PF-07104091, (1R,3S)-3-[3-({[3-(methoxymethyl)-1-methyl-1H-pyrazol-5-yl]carbonyl}amino)-1H-pyrazol-5-yl]cyclopentyl propan-2-ylcarbamate]
cell cycle arrest [1]: significant G2/M arrest | S phase (cell cycle distribution) ([1]; p=0.057): trended towards significance | predicted human AUC0-12 hr as % of observed AUC0-12 hr at the HNSTD in dog ([2]; human 75 mg BID oral vs dog 15 mg/kg BID): ~80% | predicted human AUC0-12 hr as % of observed AUC0-12 hr at the STD10 in mouse ([2]; human 75 mg BID oral vs mouse 150 mg/kg BID): ~6.5% | predicted human t % ([2]; human, predicted): approximately 4 hours | cell cycle arrest [3]: significant G2/M arrest | S phase (cell cycle distribution) ([3]; p≤0.05 versus vehicle): Significant S phase reduction | IC50 [4]: 136 nM | cell cycle arrest [5]: Significant G1 arrest | S phase (cell cycle distribution) ([5]; p≤0.05 versus vehicle): Significant S phase reduction | TGI % [6]: 34%
